In ChEMBL document CHEMBL5625179, “2-Substituted quinazolines: Partial agonistic and antagonistic ligands of the constitutive androstane receptor (CAR)” (Eur J Med Chem, 2023):
pEC50, pIC50: −log10 of the molar value.

Tests used:
Type in all cases: cell-based
[1] = target: T1, Nuclear receptor subfamily 1 group I member 3 (Homo sapiens, UniProt Q14994); test: Activation of human CAR LBD expressed in human HepG2 cells at 30 uM incubated for 24 hrs by dual luciferase reporter assay relative to CITCO; settings: hepg2, 24 h
T1 sequence (Q14994 whole entry): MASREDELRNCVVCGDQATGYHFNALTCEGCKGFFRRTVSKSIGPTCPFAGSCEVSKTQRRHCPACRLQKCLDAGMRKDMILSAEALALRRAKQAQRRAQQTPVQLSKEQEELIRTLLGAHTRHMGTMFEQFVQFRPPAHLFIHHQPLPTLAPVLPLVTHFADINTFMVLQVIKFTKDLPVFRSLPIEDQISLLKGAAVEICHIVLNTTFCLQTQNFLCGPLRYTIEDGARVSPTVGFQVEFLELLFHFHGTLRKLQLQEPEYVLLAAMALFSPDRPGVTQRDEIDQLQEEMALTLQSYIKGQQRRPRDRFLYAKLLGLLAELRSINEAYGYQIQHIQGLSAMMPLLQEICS

[2] = target: T1, Nuclear receptor subfamily 1 group I member 3; test: Activation of human CAR3 expressed in human HepG2 cells at 30 uM incubated for 24 hrs by dual luciferase gene reporter assay relative to CITCO; settings: hepg2, 24 h
[3] = target: T1, Nuclear receptor subfamily 1 group I member 3; test: Antagonist activity at human CAR LBD (151 to 349 residues) expressed in HepG2 cells co-expressed with pGL5-luc luciferase assessed as reduction in CAR activation measured after 1 to 4 hrs in presence of CITCO by LanthaScreen TR-FRET assay
CAR3 (NR1I3) = target: T2, CAR3 (NR1I3) (Homo sapiens, UniProt Q14994); test: Antagonist activity at human CAR3 expressed in human HepG2 cells at 30 uM incubated for 24 hrs by dual luciferase gene reporter assay relative to CITCO; set-up: scale not given: the % may be the effect or the level left; settings: HepG2 cells expressing human CAR3, read-out: Activity
T2 sequence (Q14994 whole entry): T1 sequence (Q14994 whole entry)

CAR (NR1I3) LBD [4] = target: T3, CAR (NR1I3) LBD (Homo sapiens, UniProt Q14994); test: Antagonist activity at human CAR LBD expressed in human HepG2 cells at 30 uM incubated for 24 hrs by dual luciferase reporter assay relative to CITCO; set-up: scale not given: the % may be the effect or the level left; settings: HepG2 cells expressing human CAR LBD, read-out: Activity
T3 sequence (Q14994 whole entry): T1 sequence (Q14994 whole entry)

[5] = target: T1, Nuclear receptor subfamily 1 group I member 3; test: Partial agonist activity at human CAR LBD (151 to 349 residues) expressed in HepG2 cells coexpressed with pGL5-luc luciferase measured after 1 to 4 hrs by LanthaScreen TR-FRET assay; settings: for Activity: human, hepg2, time 1-4 hrs
[6] = target: T1, Nuclear receptor subfamily 1 group I member 3; test: Antagonist activity at human CAR LBD expressed in human HepG2 cells incubated for 24 hrs in presence of CITCO by dual luciferase reporter assay
[7] = target: T1, Nuclear receptor subfamily 1 group I member 3; test: Antagonist activity at human CAR LBD (151 to 349 residues) expressed in HepG2 cells co-expressed with pGL5-luc luciferase assessed as reduction in CAR activation measured after 1 to 4 hrs by LanthaScreen TR-FRET assay; settings: time 1-4 hrs
[8] = target: T1, Nuclear receptor subfamily 1 group I member 3; test: Antagonist activity at human CAR LBD expressed in human HepG2 cells at 30 uM incubated for 24 hrs in presence of CITCO by dual luciferase reporter assay; settings: hepg2, 24 h
[9] = target: T1, Nuclear receptor subfamily 1 group I member 3; test: Partial agonist activity human CAR3 expressed in human HepG2 cells at 30 uM incubated for 24 hrs by dual luciferase gene reporter assay relative to CITCO; settings: hepg2, 24 h
CAR (NR1I3) LBD [10] = target: T3, CAR (NR1I3) LBD; test: Partial agonist activity at human CAR LBD expressed in human HepG2 cells at 30 uM incubated for 24 hrs by dual luciferase reporter assay relative to CITCO; settings: HepG2 cells expressing human CAR LBD, read-out: Activity

Row | Activity [1] [%] | Activity [2] [%] | Structure (SMILES) | also measured
1 | 3 | 28 | COc1ccc(-c2nc(O)c3ccccc3n2)cc1OC | –
2 | 5 | 34 | Cc1cccc(-c2nc(O)c3ccccc3n2)c1 | –
3 | -3 | 15 | COc1nc(-c2cccc([N+](=O)[O-])c2)nc2ccccc12 | –
4 | – | – | Sc1nc(-c2ccc(Br)cc2)nc2ccccc12 | pIC50 [3]: 4.02; activity at 24 h, 30 µM (CAR3 (NR1I3)): 44%; activity at 24 h, 30 µM (CAR (NR1I3) LBD [4]): 1%; Activity [5]: Not Active; pIC50 [6]: 4.52; Activity [7]: Not Active; Activity [8]: Active
5 | -6 | 10 | Oc1nc(-c2ccc(F)cc2)nc2ccccc12 | –
6 | 3 | 12 | O=c1[nH]c(-c2ccc(Br)cc2)nc2ccccc12 | –
7 | -8 | 12 | O=c1[nH]c(-c2ccc(C(F)(F)F)cc2)nc2ccccc12 | –
8 | 3 | 33 | COc1ccc(-c2nc3ccccc3c(=O)[nH]2)cc1 | –
9 | -2 | 3 | O=c1[nH]c(-c2ccc3c(c2)OCO3)nc2ccccc12 | –
10 | -5 | 7 | CC(C)(C)c1ccc(-c2nc3ccccc3c(=O)[nH]2)cc1 | –
11 | 1 | 11 | O=[N+]([O-])c1cccc(-c2nc3ccccc3c(=S)[nH]2)c1 | –
12 | -6 | 15 | COc1ccc(-c2nc3ccccc3c(=O)n2C)cc1OC | –
13 | -5 | 5 | COc1nc(-c2cccc(F)c2)nc2ccccc12 | –
14 | -4 | 13 | COc1ccc(-c2nc3ccccc3c(=S)[nH]2)cc1OC | –
15 | 1 | 9 | CC(C)(C)c1ccc(-c2nc3ccccc3c(=S)[nH]2)cc1 | –
16 | -8 | 22 | Cn1c(-c2ccc(OC(F)(F)F)cc2)nc2ccccc2c1=O | Activity [5]: Not Active; Activity [7]: Not Active; Activity [8]: Active
17 | -6 | 9 | O=c1[nH]c(-c2ccc(Cl)c(Cl)c2)nc2ccccc12 | –
18 | 6 | 15 | S=c1[nH]c(-c2cccc(Cl)c2)nc2ccccc12 | –
19 | – | – | CSc1nc(-c2cccc(C)c2)nc2ccccc12 | pEC50 [5]: 4.98; Activity [9]: 44%; activity at 24 h, 30 µM (CAR (NR1I3) LBD [10]): 36.3%; Activity [8]: Active
20 | -3 | 5 | COc1nc(-c2ccc(OC(F)(F)F)cc2)nc2ccccc12 | –
21 | -5 | 13 | Cn1c(-c2ccc(F)cc2)nc2ccccc2c1=O | –
22 | -3 | 13 | Cc1cccc(-c2nc3ccccc3c(=O)n2C)c1 | –
